PMC6032016, “Synthesis, biological evaluation, and molecular modelling studies of potent human neutrophil elastase (HNE) inhibitors” (Journal of Enzyme Inhibition and Medicinal Chemistry, 2018)
Several values for one entry are separate records, joined by “and”; a condition that tells them apart may be missing. Equal entries are not always repeated.

Key:
[1] = molecular target: T1, HNE (human neutrophil elastase) (Homo sapiens, UniProt P08246); test: HNE inhibition assay (fluorogenic substrate cleavage); type: biochemical; conditions: for HNE inhibitory activity, result in words: highest concentration tested 50 µM; for IC50: mean ± SD of three independent experiments, NA: no inhibitory activity at the highest concentration tested (50 µM)
T1 construct: purchased Calbiochem
T1 sequence (P08246 30-267): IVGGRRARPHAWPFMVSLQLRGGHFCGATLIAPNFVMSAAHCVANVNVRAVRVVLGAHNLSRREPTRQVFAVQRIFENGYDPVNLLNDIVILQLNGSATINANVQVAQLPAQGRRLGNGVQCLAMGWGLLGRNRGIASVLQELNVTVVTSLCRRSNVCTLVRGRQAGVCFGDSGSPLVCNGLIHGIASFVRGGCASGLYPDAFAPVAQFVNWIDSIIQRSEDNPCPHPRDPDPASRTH
Protocol: Compounds were dissolved in 100% DMSO at 5 mM stock concentrations. […] The HNE inhibition assay was performed in black flat-bottom 96-well microtiter plates. Briefly, a buffer solution containing 200 mM Tris–HCl, pH 7.5, 0.01% bovine serum albumin, and 0.05% Tween-20 and 20 mU/mL of HNE (Calbiochem) was added to wells containing different concentrations of each compound. The reaction was initiated by addition of 25 µM elastase substrate (N-methylsuccinyl-Ala-Ala-Pro-Val-7-amino-4-methylcoumarin, Calbiochem) in a final reaction volume of 100 µl/well. Kinetic measurements were obtained every 30 s for 10 min at 25 °C using a Fluoroskan Ascent FL fluorescence microplate reader (Thermo Electron, MA) with excitation and emission wavelengths set at 355 and 460 nm, respectively. For all compounds tested, the concentration of inhibitor that caused 50% inhibition of the enzymatic reaction (IC50) was calculated by plotting % inhibition versus logarithm of inhibitor concentration (at least six points). The data are presented as the mean values of at least three independent experiments with relative standard deviations of <15%.

[2] = Analysis of compound stability: spontaneous hydrolysis in aqueous buffer; type: physicochemical; conditions: 25 °C, 0.05 M phosphate buffer, pH 7.3; read-out: t1/2 for spontaneous hydrolysis (converted)
Protocol: Spontaneous hydrolysis of selected derivatives was evaluated at 25 °C in 0.05 M phosphate buffer, pH 7.3. Kinetics of hydrolysis were monitored by measuring changes in the absorbance spectra over time using a SpectraMax Plus microplate spectrophotometer (Molecular Devices, Sunnyvale, CA). Absorbance (At) at the characteristic absorption maxima of each compound was measured at the indicated times until no further absorbance decreases occurred (A∞)[52]. Using these measurements, we created semilogarithmic plots of log(At–A∞) versus time, and k′ values were determined from the slopes of these plots. Half-conversion times were calculated using t1/2 = 0.693/k′, as described previously[36]^,[37].

HNE [3] = molecular target: T2, HNE (Homo sapiens, UniProt P08246); test: Reversibility of HNE inhibition over extended periods of time; type: biochemical; conditions: 8 µM compound
T2 construct: purchased Calbiochem
T2 sequence (P08246 30-267): T1 sequence (P08246 30-267)
Protocol: The inhibition was maximal for up to 60 min with compound 7e and >120 min for the other tested compounds (4a, 4b, and 7a). However, inhibition by the compounds was eventually reversed, and full recovery of HNE activity was observed by 4 h after treatment with 8 µM of the compound (e.g. see Figure 6).
Figure 6. […] HNE was incubated with the indicated compounds (8 µM), and kinetic curves monitoring substrate cleavage catalysed by HNE over time are shown. Representative curves are from two independent experiments.

HNE [4] = molecular target: T2, HNE; test: Kinetics of HNE inhibition (double-reciprocal Lineweaver–Burk plots); type: biochemical; conditions: Lineweaver–Burk plot of fluorogenic substrate hydrolysis
From the text: To better understand the mechanism of action of these isoxazolone HNE inhibitors, we performed kinetic experiments.
Figure 7. Kinetics of HNE inhibition by compounds 7d and 8d. Representative double reciprocal Lineweaver–Burk plots are shown from three independent experiments.

SMILES	melting point	IC50 [1]	also measured
Cc1cccc(C(=O)n2oc(=O)cc2-c2ccc([N+](=O)[O-])cc2)c1 [Compound 4s, 2-(3-Methylbenzoyl)-3-(4-nitrophenyl)isoxazol-5(2H)-one]	177 to 180 °C (dec.)	–	HNE inhibitory activity, result in words [1]: completely inactive
Cc1cccc(C(=O)Oc2onc(C)c2-c2ccc(NC(=O)C3CC3)cc2)c1 [Compound 8e, 4-(4-(Ciclopropanecarboxamido)phenyl)-3-methylisoxazol-5-yl3-me-thylbenzoate]	80 to 82 °C	620 ± 210 nM	half-life [2]: 5.6 h
Cc1cccc(C(=O)n2oc(=O)c(C)c2-c2ccccc2)c1 [Compound 4o, 4-Methyl-2-(3-methylbenzoyl)-3-phenylisoxazol-5(2H)-one]	–	13600 ± 2400 nM	–
Cc1cccc(C(=O)n2oc(=O)c(-c3ccccc3)c2-c2ccccc2)c1 [Compound 4m, 2-(3-Methylbenzoyl)-3,4-diphenylisoxazol-5(2H)-one]	160 to 163 °C	10100 ± 1300 nM	–
Cc1cccc(C(=O)n2oc(=O)c(-c3ccccc3)c2C)c1 [Compound 4a, 3-Methyl-2-(3-methylbenzoyl)-4-phenylisoxazol-5(2H)-one]	85 to 88 °C	77 ± 27 nM	half-life [2]: 4.1 h; time for which HNE inhibition was maximal (HNE [3]): > 120 min
Cc1ccccc1C(=O)n1oc(=O)c(-c2ccccc2)c1C [Compound 4d, 3-Methyl-2-(2-methylbenzoyl)-4-phenylisoxazol-5(2H)-one]	99 to 100 °C	350 ± 36 nM	–
CC(=O)Nc1ccc(-c2c(C)noc2OC(=O)c2cccc(C)c2)cc1 [Compound 8d, 4-(4-Acetamidophenyl)-3-methylisoxazol-5-yl3-methylbenzoate]	57 to 60 °C	540 ± 110 nM	half-life [2]: 2.9 h; mechanism of HNE inhibition (HNE [4]): competitive
CC(=O)Nc1ccc(-c2cc(=O)on2C(=O)c2cccc(C)c2)cc1 [Compound 4u, N-(4-(2-(3-methylbenzoyl)-5-oxo-2,5-dihydroisoxazol-3-yl)phenyl)acetamide]	–	28600 ± 3300 nM	–
Cc1c(-c2ccccc2)c(=O)on1C(=O)c1cccc(S(C)(=O)=O)c1 [Compound 4f, 3-Methyl-2-(3-(methylsulfonyl)benzoyl)-4-phenylisoxazol-5(2H)-one]	185 to 186 °C	29600 ± 7200 nM	–
O=C(C1CC1)n1oc(=O)c(-c2ccccc2)c1-c1ccccc1 [Compound 4n, 2-(Cyclopropanecarbonyl)-3,4-diphenylisoxazol-5(2H)-one]	100 to 103 °C	17200 ± 2300 nM	–
O=C(C1CC1)n1oc(=O)cc1-c1ccc([N+](=O)[O-])cc1 [Compound 4t, 2-(Cyclopropanecarbonyl)-3-(4-nitrophenyl)isoxazol-5(2H)-one]	–	–	HNE inhibitory activity, result in words [1]: completely inactive
Cc1cccc(C(=O)n2oc(=O)c3ccccc32)c1 [Compound 10c, 1-(3-Methylbenzoyl)benzo[c]isoxazol-3(1H)-one]	116 to 119 °C	638 ± 121 nM	–
Cc1ccc(-c2c(C)n(C(=O)c3cccc(C)c3)oc2=O)cc1 [Compound 7a, 3-Methyl-2-(3-methylbenzoyl)-4-(p-tolyl)isoxazol-5(2H)-one]	–	20 ± 9 nM	half-life [2]: 7.7 h; time for which HNE inhibition was maximal (HNE [3]): > 120 min
Cc1ccc(-c2c(C)noc2OC(=O)c2cccc(C)c2)cc1 [Compound 8a, 3-Methyl-4-(p-tolyl)isoxazol-5-yl 3-methylbenzoate]	–	10000 nM and 10200 nM	half-life [2]: 5.3 h
Cc1ccc(C(=O)n2oc(=O)c(-c3ccccc3)c2C)cc1 [Compound 4c, 3-Methyl-2-(4-methylbenzoyl)-4-phenylisoxazol-5(2H)-one]	134 to 136 °C	230 ± 34 nM	–
Cc1c(-c2ccccc2)c(=O)on1C(=O)C1CC1 [Compound 4b, 2-(Cyclopropanecarbonyl)-3-methyl-4-phenylisoxazol-5(2H)-one]	83 to 86 °C	59 ± 18 nM	half-life [2]: 8.3 h; time for which HNE inhibition was maximal (HNE [3]): > 120 min
Cc1c(-c2ccccc2)c(=O)on1C(=O)c1ccc(OC(=O)C(C)(C)C)cc1 [Compound 4l, 4-(3-Methyl-5-oxo-4-phenyl-2,5-dihydroisoxazole-2-carbonyl)phenyl pivalate]	130 to 132 °C	480 ± 130 nM	–

SMILES	melting point	IC50 [1]	also measured
Cc1c(-c2ccccc2)n(C(=O)C2CC2)oc1=O [Compound 4p, 2-(Cyclopropanecarbonyl)-4-methyl-3-phenylisoxazol-5(2H)-one]	–	1100 ± 140 nM	–
Cc1c(-c2ccccc2)c(=O)on1C(=O)c1cccc(C(F)(F)F)c1 [Compound 4e, 3-Methyl-4-phenyl-2-(3-(trifluoromethyl)benzoyl)isoxazol-5(2H)-one]	96 to 97 °C	200 ± 27 nM	–
Cc1c(-c2ccccc2)c(=O)on1C(=O)c1ccc(NC(=O)C(C)(C)C)cc1 [Compound 4i, N-(4-(3-methyl-5-oxo-4-phenyl-2,5-dihydroisoxazole-2-carbonyl)phenyl)pivalamide]	132 to 134 °C	8500 ± 2100 nM	–
Cc1c(-c2ccccc2)c(=O)on1S(=O)(=O)c1ccc(OC(=O)C(C)(C)C)cc1 [Compound 3b, 4-((3-Methyl-5-oxo-4-phenylisoxazol-2(5H)-yl)sulfonyl)phenyl pivalate]	–	59 ± 20 nM	–
CCC(=O)n1oc(=O)c2ccccc21 [Compound 10a, 1-Propionylbenzo[c]isoxazol-3(1H)-one]	–	25100 ± 3600 nM	–
Cc1cccc(C(=O)Oc2onc(C)c2-c2ccc(C#N)cc2)c1 [Compound 8b, 4-(4-Cyanophenyl)-3-methylisoxazol-5-yl 3-methylbenzoate]	98 to 100 °C	420 ± 130 nM	–
Cc1cccc(C(=O)n2oc(=O)c(-c3ccc([N+](=O)[O-])cc3)c2C)c1 [Compound 7c, 3-Methyl-2-(3-methylbenzoyl)-4-(4-nitrophenyl)isoxazol-5(2H)-one]	152 to 154 °C	210 ± 40 nM	–
Cc1c(-c2ccccc2)c(=O)on1C(=O)c1cccc(C#N)c1 [Compound 4g, 3-(3-Methyl-5-oxo-4-phenyl-2,5-dihydroisoxazole-2-carbonyl)benzonitrile]	118 to 119 °C	6300 ± 1400 nM	–
CCCCC(=O)n1oc(=O)c2ccccc21 [Compound 10b, 1-Pentanoylbenzo[c]isoxazol-3(1H)-one]	–	–	HNE inhibitory activity, result in words [1]: inactive
Cc1c(-c2ccccc2)c(=O)on1C(=O)c1ccc(C#N)cc1 [Compound 4h, 4-(3-Methyl-5-oxo-4-phenyl-2,5-dihydroisoxazole-2-carbonyl)benzonitrile]	178 to 180 °C (dec.)	11400 ± 1900 nM	–
Cc1c(-c2ccccc2)c(=O)on1S(=O)(=O)c1ccc(O)cc1 [Compound 3a, 2-((4-Hydroxyphenyl)sulfonyl)-3-methyl-4-phenylisoxazol-5(2H)-one]	50 to 51 °C	–	HNE inhibitory activity, result in words [1]: inactivity
Cc1cccc(C(=O)n2oc(=O)c(-c3ccc(C#N)cc3)c2C)c1 [Compound 7b, 4-(3-Methyl-2-(3-methylbenzoyl)-5-oxo-2,5-dihydroisoxazol-4-yl)benzonitrile]	108 to 110 °C	70 ± 20 nM	time after which HNE inhibition was reversed (HNE [3]): ~30 min
Cc1cccc(C(=O)n2oc(=O)cc2-c2ccccc2)c1 [Compound 4q, 2-(3-Methylbenzoyl)-3-phenylisoxazol-5(2H)-one]	–	48700 ± 3300 nM	–
Cc1cccc(Cn2oc(=O)c(-c3ccccc3)c2C)c1 [Compound 2, 3-Methyl-2-(3-methylbenzyl)-4-phenylisoxazol-5(2H)-one]	–	–	HNE inhibitory activity, result in words [1]: completely inactive
Cc1c(-c2ccccc2)c(=O)on1S(=O)(=O)c1ccc(NC(=O)C(C)(C)C)cc1 [Compound 3c, N-(4-((3-methyl-5-oxo-4-phenylisoxazol-2(5H)-yl)sulfonyl)phenyl)pivalamide]	–	–	HNE inhibitory activity, result in words [1]: completely inactive
Cc1cccc(C(=O)n2oc(=O)c(-c3ccc(NC(=O)C4CC4)cc3)c2C)c1 [Compound 7e, N-(4-(3-methyl-2-(3-methylbenzoyl)-5-oxo-2,5-dihydroisoxazol-4-yl)phenyl)ciclopropanecarboxamide]	120 to 123 °C	50 ± 20 nM	half-life [2]: 9.6 h; time for which HNE inhibition was maximal (HNE [3]): up to 60 min
O=C(C1CC1)n1oc(=O)cc1-c1ccccc1 [Compound 4r, 2-(Cyclopropanecarbonyl)-3-phenylisoxazol-5(2H)-one]	–	12700 ± 2700 nM	–
